The values that follow come from ChEMBL document CHEMBL1201862, “PubChem BioAssay data set” (2004).

Activity calls are given as the source filed them.

The EC50 is the concentration at which the effect is half-maximal. One may read the AC50 as the concentration at which the activity in the assay is half-maximal.

Series [1] in a line: cytotoxicity toward NIH3T3 fibroblasts, dose response, counter-screen, cell-based, ATP luminescence, mouse fibroblasts (AID 2010).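 Further: cells exposed to compound for about 90 hours before reading.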 The format is functional.
The nature of series [2]: inhibitors of intracellular T. cruzi replication, confirmation, NIH3T3 host cells, beta-gal luminescence (AID 2044).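 Further: intracellular parasites grown in NIH/3T3 mouse fibroblasts as host cells; luminescent beta-galactosidase reporter signal from transgenic T. cruzi replicating inside host cells; inhibitors lower the luminescence signal.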 It counts as functional, cell-based.
The target in another series is T1, Streptokinase A (Streptococcus pyogenes serotype M1, UniProt P10520).
T1 sequence (P10520 whole entry): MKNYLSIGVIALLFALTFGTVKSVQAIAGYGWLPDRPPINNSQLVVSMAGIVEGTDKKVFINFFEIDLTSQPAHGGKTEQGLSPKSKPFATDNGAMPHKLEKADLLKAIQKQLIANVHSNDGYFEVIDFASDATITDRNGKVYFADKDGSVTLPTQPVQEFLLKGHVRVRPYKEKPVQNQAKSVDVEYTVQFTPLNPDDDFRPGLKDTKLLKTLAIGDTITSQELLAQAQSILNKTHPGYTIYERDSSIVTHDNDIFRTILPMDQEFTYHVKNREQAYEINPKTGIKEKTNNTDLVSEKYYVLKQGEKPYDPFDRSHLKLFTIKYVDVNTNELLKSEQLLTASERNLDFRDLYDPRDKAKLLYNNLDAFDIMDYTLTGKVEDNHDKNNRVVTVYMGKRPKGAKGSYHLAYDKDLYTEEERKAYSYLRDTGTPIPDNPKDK
Nature of the series: S. pyogenes streptokinase expression inhibitors, potency, dose response, plasminogen activation absorbance, OD405 (AID 1914).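 Further: secreted streptokinase activity via plasminogen activation per viability signal from cell pellet.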 The format is functional, Streptococcus pyogenes M1 GAS.

A further series has as its system Streptococcus. Briefly: Group A Streptococcus viability loss, dose response, counter-screen for streptokinase expression inhibitor project, luminescence, BacTiterGlo (AID 1915).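 Further: potency for reduction of bacterial viability or growth.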 The format is functional, organism-based.
Series [3] has as its system Streptococcus sp. 'group A'. Nature of the series: growth inhibition of control SK(-) GAS strain, dose response, counter-screen for streptokinase expression inhibitor project, luminescence, kanamycin, BacTiterGlo, confirmation (AID 1900). The format is functional, organism-based.
The next series addresses Cytochrome P450 2C19 (Homo sapiens, UniProt P33261). Nature of the series: Cytochrome panel assay with activity outcomes. Panel member name: p450-cyp2c19 Compounds with AC50 equal or less than 10 uM are considered active. It counts as functional.
In the next series the target is Cytochrome P450 2D6 (Homo sapiens, UniProt P10635).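 Further: CYP2D6 member of a cytochrome P450 panel assay.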
Cytochrome P450 2D6, sequence (P10635 whole entry): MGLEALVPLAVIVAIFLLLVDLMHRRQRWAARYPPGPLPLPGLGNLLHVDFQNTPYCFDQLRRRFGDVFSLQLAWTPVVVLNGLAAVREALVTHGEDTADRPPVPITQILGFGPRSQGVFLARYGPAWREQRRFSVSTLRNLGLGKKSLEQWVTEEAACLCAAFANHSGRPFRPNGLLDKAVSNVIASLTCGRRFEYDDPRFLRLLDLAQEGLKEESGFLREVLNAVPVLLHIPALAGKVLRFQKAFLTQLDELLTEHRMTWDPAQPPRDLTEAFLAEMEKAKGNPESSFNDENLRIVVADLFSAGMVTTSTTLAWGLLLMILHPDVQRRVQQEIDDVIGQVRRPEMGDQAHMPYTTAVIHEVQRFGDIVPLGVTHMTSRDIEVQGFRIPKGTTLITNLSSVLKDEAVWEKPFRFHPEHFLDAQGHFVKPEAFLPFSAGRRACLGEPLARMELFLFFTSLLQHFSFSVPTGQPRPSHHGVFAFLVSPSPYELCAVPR
In the next series the target is Cytochrome P450 2C9 (Homo sapiens, UniProt P11712).
Cytochrome P450 2C9, sequence (P11712 whole entry): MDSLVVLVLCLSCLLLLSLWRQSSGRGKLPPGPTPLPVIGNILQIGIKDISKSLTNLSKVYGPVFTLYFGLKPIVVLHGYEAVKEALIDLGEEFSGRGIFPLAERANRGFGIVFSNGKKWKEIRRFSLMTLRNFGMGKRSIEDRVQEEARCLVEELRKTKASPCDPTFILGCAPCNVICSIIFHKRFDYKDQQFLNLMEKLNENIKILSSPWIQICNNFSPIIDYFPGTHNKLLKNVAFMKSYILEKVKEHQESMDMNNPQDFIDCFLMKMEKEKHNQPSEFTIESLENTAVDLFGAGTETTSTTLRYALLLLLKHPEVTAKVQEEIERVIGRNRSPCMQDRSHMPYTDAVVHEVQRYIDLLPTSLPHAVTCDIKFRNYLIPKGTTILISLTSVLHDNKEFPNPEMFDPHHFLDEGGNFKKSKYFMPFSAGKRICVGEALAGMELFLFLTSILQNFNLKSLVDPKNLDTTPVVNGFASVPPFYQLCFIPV

Cytochrome P450 2C19, sequence (P33261 whole entry): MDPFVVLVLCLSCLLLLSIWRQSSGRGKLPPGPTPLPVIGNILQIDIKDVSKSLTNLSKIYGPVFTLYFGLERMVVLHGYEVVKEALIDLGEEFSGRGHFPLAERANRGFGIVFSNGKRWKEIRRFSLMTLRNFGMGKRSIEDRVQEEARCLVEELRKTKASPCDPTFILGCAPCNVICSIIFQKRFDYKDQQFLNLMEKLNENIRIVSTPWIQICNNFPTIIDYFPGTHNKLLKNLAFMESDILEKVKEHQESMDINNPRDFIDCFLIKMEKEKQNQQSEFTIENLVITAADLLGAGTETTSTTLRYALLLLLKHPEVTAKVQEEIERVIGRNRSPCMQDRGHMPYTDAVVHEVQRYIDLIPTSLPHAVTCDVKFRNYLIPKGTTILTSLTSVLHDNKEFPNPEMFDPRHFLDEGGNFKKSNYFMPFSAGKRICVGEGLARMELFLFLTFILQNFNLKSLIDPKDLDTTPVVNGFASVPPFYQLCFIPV

Turning to `COc1cc(-c2cc(C(=O)Nc3ccc(S(=O)(=O)NCc4ccco4)cc3)c3ccccc3n2)cc(OC)c1OC`, the EC50 in series [1] is > 60 µM (not active); in series [2], 1.62 µM (active). `COc1ccc2c3ncn(CCc4c[nH]cn4)c(O)c-3nc2c1`: the EC50 (at Streptokinase A; with Streptococcus; in series [3]) was > 150 µM (not active) throughout. In the case of `O/N=C/c1ccccc1OCc1ccc(Cl)cc1`, the AC50 at Cytochrome P450 2C19 (read-out: AC50) was 2.82 µM (inconclusive); at Cytochrome P450 2D6 it was 22.4 µM (inconclusive). Turning to `CC1=C(C#N)c2nc(N)c(C#N)c(C)c2/C1=C\c1ccc(C)cc1`, the 50% effective concentration (EC50) at Streptokinase A is 12.3 µM (active); in the series on Streptococcus, > 150 µM (not active); in series [3], 4.38 µM (active). As to `Cc1cc(NCCO)c2ccccc2n1`, the AC50 at Cytochrome P450 2C19 (read-out: AC50) is 39.8 µM (inconclusive). Turning to `C=CCc1cc(/C=C2/NC(=O)N(CC)C2=O)cc(OCC)c1OCc1ccc(C(=O)O)cc1`, the results for the half-maximal effective concentration (EC50) (at Streptokinase A; in the series on Streptococcus; in series [3]) were > 150 µM (not active), 105 µM (active) and 12.5 µM (active), respectively.

Turning to `NC(=O)C1(N2CCCCC2)CCN(C(=O)c2ccc(-n3cnnn3)cc2)CC1`, the AC50 at Cytochrome P450 2D6 is 1.58 µM (inconclusive). With `CCN(CC)S(=O)(=O)c1cccc(C(=O)/C=C2/N(C)c3ccccc3C2(C)C)c1`, the figures for the EC50 in series [1] and in series [2] were > 60 µM (inconclusive) and 0.739 µM (active), respectively.

In the case of `c1ccc2c(c1)C(=NC1CCCCC1)N=C2NC1CCCCC1`, the values for the EC50 in series [1] and in series [2] were > 60 µM (not active) and 1.27 µM (active), respectively. For `CC1(C)CC(=O)C2=C(C1)Oc1nc3ccccc3cc1C2C(C#N)C#N` (stereo not given), the AC50 on Cytochrome P450 2D6 was 0.112 µM (inconclusive). `O=C(Nc1ccccc1)N1CCC2(CC1)CCN(S(=O)(=O)c1ccccc1)CC2`: the AC50 at Cytochrome P450 2D6 is 39.8 µM (inconclusive). In the case of `COc1ccc2c(c1)-c1c(sn(-c3ccc(OC)c(OC)c3)c1=S)C(C)(C)N2`, the AC50 at Cytochrome P450 2C9 was 5.01 µM (inconclusive). Consider `CCC(C)(C)NC(=NC#N)Nc1cccnc1`, for which the AC50 at Cytochrome P450 2D6 is 39.8 µM (inconclusive).

Consider `COc1ccc(CCNC(=O)c2cccc(NS(=O)(=O)c3ccccc3F)c2)cc1OC`, for which the EC50 (at Streptokinase A; with Streptococcus; in series [3]) was > 150 µM (not active) in each case. As for `Cc1nc2cnc(N3CCNCC3)nc2n(CCc2ccccc2)c1=O`, at Cytochrome P450 2C9, the AC50 was 39.8 µM (inconclusive).

Take `Cc1nc2sccc2c(=O)n1-c1ccccc1Cl`: the AC50 on Cytochrome P450 2D6 was 14.1 µM (inconclusive).

Consider `Cc1ccc2c(c1)C(=O)[C@@]1(O)CCN(c3ccccc3)C1=N2`, for which the half-maximal activity concentration (AC50) on Cytochrome P450 2D6 was 39.8 µM (inconclusive).

With `Cc1ccc(S(=O)(=O)N(CC(=O)Nc2cccc(N(C)S(C)(=O)=O)c2)c2ccc(Cl)c(Cl)c2)cc1`, the EC50 in series [1] is > 60 µM (not active); in series [2], 2.14 µM (active). Take `Cc1cc(Nc2ccccc2)nn1C(=O)c1ccc(Br)cc1`: the EC50 at Streptokinase A is > 150 µM (not active); with Streptococcus, > 150 µM (not active); in series [3], 20.6 µM (active).

Take `CC(=O)N1CCc2cc(S(=O)(=O)N3CCc4ccccc43)ccc21`: the half-maximal effective concentration (EC50) (on Streptokinase A; with Streptococcus; in series [3]) was > 150 µM (not active) throughout.

As to `CC(C)C(NC(=O)OCc1ccccc1)C(=O)O` (stereo not given), at Cytochrome P450 2C9, the AC50 is 11.2 µM (inconclusive). On to `O=C(CN(c1ccc(Cl)c(C(F)(F)F)c1)S(=O)(=O)c1ccccc1)N/N=C/c1cccc2c1OCCO2`, for which the values for the EC50 (on Streptokinase A; in the series with Streptococcus; in series [3]) were 32.9 µM (active), 95.3 µM (active) and 8.38 µM (active), respectively. Take `CC(c1ccccc1C(O)c1ccccc1)N(C)C` (stereo not given): the AC50 at Cytochrome P450 2C9 was 0.0355 µM (inconclusive). Turning to `O=C(CSc1ccc(Cl)cc1)NC1=NN(c2ccccc2)C(=O)C1`, the EC50 on Streptokinase A is 9.33 µM (inconclusive); with Streptococcus, 7.17 µM (active); in series [3], 7.47 µM (active).

In the case of `O=P(O)(CCc1ccccc1)C(O)c1ccccc1` (stereo not given), the AC50 at Cytochrome P450 2D6 was 35.5 µM (inconclusive).

Turning to `Cc1ccc(OCCn2cnc3cc([N+](=O)[O-])ccc3c2=O)cc1`, the EC50 in series [1] is > 30 µM (not active); in series [2] it was 0.366 µM (active). Take `CCOc1ccc(CC(C(N)=O)C(N)=O)cc1CN(C)C`: the AC50 is 22.4 µM (inconclusive) at Cytochrome P450 2C19 (read-out: AC50) and 17.8 µM (inconclusive) on Cytochrome P450 2D6. As for `CN(C)c1nc(N)ncc1-c1ccc(Oc2ccccc2)cc1`, the half-maximal effective concentration (EC50) is > 60 µM (not active) in series [1] and 0.231 µM (active) in series [2]. Take `C[C@@H](C[C@@H](O)[C@H](O)C(C)(C)O)[C@@H]1CC[C@]2(C)C3=CC[C@H]4C(C)(C)C(=O)CC[C@]4(C)[C@H]3CC[C@@]12C`: the EC50 at Streptokinase A is > 150 µM (not active); with Streptococcus, 5.03 µM (active); in series [3], 3.13 µM (active).

Regarding `C=CCn1c(=O)c(C(=O)NCc2ccccc2)c(O)c2ccccc21`, the EC50 on Streptokinase A is 42.2 µM (active); in the series on Streptococcus, > 150 µM (not active); in series [3], 20.4 µM (active). In the case of `OC[C@@H]1O[C@@H](O)[C@H](/N=C\c2ccc3c(c2)OCO3)[C@@H](O)[C@@H]1O`, on Cytochrome P450 2C19, the AC50 entry is recorded as “inconclusive”. With `Cc1ccc(C(=O)/C=C(\O)C(=O)NC23CC4CC(CC(C4)C2)C3)cc1`, the EC50 at Streptokinase A is > 150 µM (not active); in the series on Streptococcus, > 150 µM (not active); in series [3] it was 4.07 µM (active). In the case of `CCN(CC)S(=O)(=O)c1ccc(N2CCOCC2)c(NC(=O)C2CSC3(C)CCC(=O)N23)c1` (stereo not given), the EC50 (on Streptokinase A; in the series on Streptococcus; in series [3]) was > 150 µM (not active) each time. As for `COc1ccc(S(=O)(=O)Nc2ccc(F)cc2)c(C)c1C`, the AC50 at Cytochrome P450 2D6 was 0.447 µM (inconclusive). For `CN(C)C(=O)c1ccc(-c2cncnc2NCc2cccs2)cc1`, the half-maximal activity concentration (AC50) at Cytochrome P450 2D6 was 39.8 µM (inconclusive).

Turning to `O=C1c2ccccc2CCC12N=NCC2c1ccc(Br)cc1` (stereo not given), the EC50 is 23.7 µM (active) at Streptokinase A, > 150 µM (not active) in the series with Streptococcus and 22.6 µM (active) in series [3]. On to `COc1ccc(NC(=O)CN(C)C(=O)/C=C/c2cn(-c3ccccc3)nc2-c2ccc(C)cc2)cc1`, for which the EC50 is > 60 µM (not active) in series [1], > 150 µM (not active) at Streptokinase A, 114 µM (active) in the series on Streptococcus and 2.17 µM (active) in series [2]. Turning to `COc1cc(C(=O)OC(C)C(=O)Nc2ccc3c(c2)OCO3)ccc1OCc1c(C)noc1C` (stereo not given), the AC50 on Cytochrome P450 2D6 is 28.2 µM (inconclusive). On to `COc1ccc(C(=O)C2CCCN(Cc3c(C)[nH]c4ccccc34)C2)c(OC)c1` (stereo not given), for which the results for the EC50 in series [1] and in series [2] were > 60 µM (not active) and 0.299 µM (active), respectively. Turning to `CN(C)C(=O)CN(c1ccc2c(c1)OCO2)S(C)(=O)=O`, the AC50 at Cytochrome P450 2C9 was 0.178 µM (inconclusive). Turning to `O=C(CN1CCCCCCC1)N/N=C/c1ccc([N+](=O)[O-])o1`, the values for the EC50 in series [1] and in series [2] were > 60 µM (not active) and 1.34 µM (active), respectively. Consider `COc1ccc(COC2OC[C@]3(C)[C@H]4C5=C(CN3C(=O)OC(C)(C)C)[C@H](C)C(CO)C(CO)C5CC[C@@H]24)cc1` (stereo not given in full), for which the AC50 at Cytochrome P450 2C19 (read-out: AC50) was 39.8 µM (inconclusive). The same measure, in the same setting: the figure for `COc1ccc(S(=O)(=O)NCc2ccc(C(=O)N3CCN(c4ccccn4)CC3)cc2)cc1` is 7.94 µM (inconclusive).

With `O=C(N/N=C/c1ccco1)c1ccccn1`, at Cytochrome P450 2C19, the AC50 entry was “inconclusive”. On to `COc1ccc(COc2cc(-c3cccc(OC)c3)nc3ccc(NC(C)=O)cc23)cc1`, for which the EC50 in series [1] was > 60 µM (not active); in series [2], 0.728 µM (active).

Regarding `COc1cccc(Cn2c(=O)c(-c3cccs3)nc3cnc(N4CCOCC4)nc32)c1`, on Cytochrome P450 2C9, the AC50 is 25.1 µM (inconclusive).

Regarding `COc1ccc(-n2c(=O)c(-c3cccc(F)c3)nc3cncnc32)cc1`, the AC50 on Cytochrome P450 2C19 (read-out: AC50) was 31.6 µM (inconclusive).

For `O=C(CCN1C(=O)/C(=C/c2ccccc2)SC1=S)NCCCN1CCOCC1`, the EC50 in series [1] was 8.78 µM (active); in series [2] it was 2.62 µM (active). `O=S(=O)(c1ccccc1)N1CCC2(CCCN(Cc3nccs3)C2)CC1`: the AC50 entry at Cytochrome P450 2C19 is “inconclusive”. For `CCCCSc1ccc2nc(-c3ccc(C#N)cc3)cn2c1`, the EC50 is > 150 µM (not active) on Streptokinase A, 14.4 µM (active) in the series with Streptococcus and 13.1 µM (active) in series [3].

For `COc1ccc(NC(=O)CCNS(=O)(=O)c2ccc3c(c2)CCC(=O)N3)cc1`, the AC50 on Cytochrome P450 2C9 was 4.47 µM (inconclusive). For the compound `O=S(=O)(c1cnccc1N1CCN(/N=C/c2ccccc2)CC1)N1CCCCC1`, on Cytochrome P450 2D6, the AC50 was 25.1 µM (inconclusive).
